# Assays:
# Surinam grass = assay: Test C pre-/postemergence test; assay type: in vivo, Brachiaria decumbens; conditions: for Surinam Grass plant response rating: preemergence, scale 0 (no effect) to 100 (complete control); for Plant response rating, Surinam Grass: scale 0 to 100, 0 no effect, 100 complete control
# Summary of the method: (§1)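 Seeds were planted and treated preemergence with test chemical in a non-phytotoxic solvent mixture containing surfactant. Postemergence applications of the same formulation went onto plants 2 to 18 cm tall (1- to 4-leaf stage). A dash marks no test result.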
# crabgrass [1] = assay: Test A pre-/postemergence greenhouse test; assay type: in vivo, Digitaria sanguinalis; conditions: for Crabgrass, Large plant response rating: 0 to 100 scale
# Summary of the method: (§2)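 Two application timings were run side by side in the greenhouse. Before emergence, compound went onto the soil surface of loam–sand pots as a directed spray; after emergence, plants at 2–10 cm and the one- to two-leaf stage were treated. Visual injury versus controls was rated at approximately day ten.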
# morningglory = assay: Test C pre-/postemergence test; assay type: in vivo, Ipomoea coccinea; conditions: for Plant response rating, Morningglory: scale 0 to 100, 0 no effect, 100 complete control
# Summary of the method: as §1
# Italian ryegrass = assay: Test C pre-/postemergence test; assay type: in vivo, Lolium multiflorum; conditions: for Plant response rating, Ryegrass, Italian: scale 0 to 100, 0 no effect, 100 complete control
# Summary of the method: as §1
# crabgrass [2] = assay: Test C pre-/postemergence test; assay type: in vivo, Digitaria sanguinalis; conditions: for Plant response rating, Crabgrass, Large: scale 0 to 100, 0 no effect, 100 complete control
# Summary of the method: as §1
# corn [3] = assay: Test C pre-/postemergence test; assay type: in vivo, Zea mays; conditions: for Plant response rating, Corn: scale 0 to 100, 0 no effect, 100 complete control
# Summary of the method: as §1
# eastern black nightshade = assay: Test C pre-/postemergence test; assay type: in vivo, Solanum ptycanthum
# Summary of the method: as §1
# Goosegrass = assay: Test C pre-/postemergence test; assay type: in vivo, Eleusin indica; conditions: for Plant response rating, Goosegrass: scale 0 to 100, 0 no effect, 100 complete control
# Summary of the method: as §1
# johnsongrass = assay: Test C pre-/postemergence test; assay type: in vivo, Sorghum halepense; conditions: for Plant response rating, Johnsongrass: scale 0 to 100, 0 no effect, 100 complete control
# Summary of the method: as §1
# velvetleaf = assay: Test C pre-/postemergence test; assay type: in vivo, Abutilon theophrasti; conditions: Postemergence; for Plant response rating, Velvetleaf: scale 0 to 100, 0 no effect, 100 complete control
# Summary of the method: as §1
# barnyardgrass = assay: Test A pre-/postemergence greenhouse test; assay type: in vivo, Echinochloa crus-galli; conditions: for Barnyardgrass plant response rating: 0 to 100 scale
# Summary of the method: as §2
# [4] = tested on: common (oilseed) sunflower; assay: Test C pre-/postemergence test; assay type: in vivo, Helianthus annuus; conditions: for Sunflower plant response rating: preemergence, scale 0 (no effect) to 100 (complete control)
# Summary of the method: as §1
# wheat = assay: Test A pre-/postemergence greenhouse test; assay type: in vivo, Triticum aestivum; conditions: for Wheat plant response rating: 0 to 100 scale
# Summary of the method: as §2
# pigweed = assay: Test C pre-/postemergence test; assay type: in vivo, Amaranthus retroflexus; conditions: for Plant response rating, Pigweed: scale 0 to 100, 0 no effect, 100 complete control
# Summary of the method: as §1
# giant foxtail = assay: Test C pre-/postemergence test; assay type: in vivo, Setaria faberii; conditions: for Plant response rating, Foxtail, Giant: scale 0 to 100, 0 no effect, 100 complete control
# Summary of the method: as §1
# corn [5] = assay: Test A pre-/postemergence greenhouse test; assay type: in vivo, Zea mays; conditions: for Corn plant response rating: 0 to 100 scale
# Summary of the method: as §2
# [6] = Postemergence, 125 g ai/ha, 0 is no effect, 100 is complete control
# [7] = Postemergence, 500 g ai/ha, 0 is no effect, 100 is complete control
# [8] = Preemergence, 125 g ai/ha, 0 no effect, 100 complete control
# [9] = Preemergence, 500 g ai/ha, 0 to 100 scale where 0 is no effect and 100 is complete control
# [10] = 31 g ai/ha, Preemergence, scale 0 to 100
# [11] = 62 g ai/ha, preemergence, scale 0 (no effect) to 100 (complete control)
# [12] = preemergence, 125 g ai/ha, scale 0 (no effect) to 100 (complete control)
smiles,measurement,setting,value
Cc1cc[n+]([O-])c([S+]([O-])Cc2c(C(F)(F)F)nn(C)c2OC(F)F)c1 (centres unmarked) [Compound 1],Surinam Grass plant response rating,Surinam grass; 62 g ai/ha,100
same,"Plant response rating (0 to 100), Surinam Grass","Surinam grass; Postemergence, 31 g ai/ha",0
same,"Plant response rating (0 to 100), Surinam Grass","Surinam grass; Postemergence, 62 g ai/ha",0
same,"Plant response rating, Surinam Grass","Surinam grass; Postemergence, 125 g ai/ha",30
same,"Plant response rating, Surinam Grass","Surinam grass; Postemergence, 250 g ai/ha",60
same,"Plant response rating (0 to 100), Surinam Grass","Surinam grass; Preemergence, 250 g ai/ha",100
same,Surinam Grass plant response rating,Surinam grass; 125 g ai/ha,100
same,"Crabgrass, Large plant response rating",crabgrass [1]; [6],60
same,"Crabgrass, Large plant response rating",crabgrass [1]; [7],90
same,"Crabgrass, Large plant response rating",crabgrass [1]; [8],100
same,"Plant response rating, Crabgrass, Large",crabgrass [1]; [9],100
same,Morningglory plant response rating,morningglory; [10],85
same,Morningglory plant response rating,morningglory; [11],100
same,"Plant response rating (0 to 100), Morningglory","morningglory; Postemergence, 31 g ai/ha",40
same,"Plant response rating, Morningglory","morningglory; Postemergence, 62 g ai/ha",40
same,"Plant response rating, Morningglory","morningglory; Postemergence, 125 g ai/ha",45
same,"Plant response rating, Morningglory","morningglory; Postemergence, 250 g ai/ha",75
same,"Plant response rating (0 to 100), Morningglory","morningglory; Preemergence, 250 g ai/ha",100
same,Morningglory plant response rating,morningglory; [12],100
same,"Ryegrass, Italian plant response rating",Italian ryegrass; [10],60
same,"Ryegrass, Italian plant response rating",Italian ryegrass; [11],100
same,"Plant response rating (0 to 100), Ryegrass, Italian","Italian ryegrass; Postemergence, 31 g ai/ha",0
same,"Plant response rating (0 to 100), Ryegrass, Italian","Italian ryegrass; Postemergence, 62 g ai/ha",0
same,"Plant response rating, Ryegrass, Italian","Italian ryegrass; Postemergence, 125 g ai/ha",0
same,"Plant response rating, Ryegrass, Italian","Italian ryegrass; Postemergence, 250 g ai/ha",30
same,"Plant response rating (0 to 100), Ryegrass, Italian","Italian ryegrass; Preemergence, 250 g ai/ha",100
same,"Ryegrass, Italian plant response rating",Italian ryegrass; [12],100
same,"Crabgrass, Large plant response rating",crabgrass [2]; [10],0
same,"Crabgrass, Large plant response rating",crabgrass [2]; [11],80
same,"Plant response rating (0 to 100), Crabgrass, Large","crabgrass [2]; Postemergence, 31 g ai/ha",10
same,"Plant response rating, Crabgrass, Large","crabgrass [2]; Postemergence, 62 g ai/ha",30
same,"Plant response rating, Crabgrass, Large","crabgrass [2]; Postemergence, 125 g ai/ha",50
same,"Plant response rating, Crabgrass, Large","crabgrass [2]; Postemergence, 250 g ai/ha",70
same,"Plant response rating (0 to 100), Crabgrass, Large","crabgrass [2]; Preemergence, 250 g ai/ha",100
same,"Crabgrass, Large plant response rating",crabgrass [2]; [12],100
same,Corn plant response rating,corn [3]; [10],50
same,Corn plant response rating,corn [3]; [11],60
same,"Plant response rating (0 to 100), Corn","corn [3]; Postemergence, 31 g ai/ha",0
same,"Plant response rating, Corn","corn [3]; Postemergence, 62 g ai/ha",0
same,"Plant response rating, Corn","corn [3]; Postemergence, 125 g ai/ha",0
same,"Plant response rating, Corn","corn [3]; Postemergence, 250 g ai/ha",5
same,"Plant response rating (0 to 100), Corn","corn [3]; Preemergence, 250 g ai/ha",98
same,Corn plant response rating,corn [3]; [12],95
same,Nightshade plant response rating,eastern black nightshade; [10],70
same,Nightshade plant response rating,eastern black nightshade; [11],100
same,"Plant response rating (0 to 100), Nightshade","eastern black nightshade; Preemergence, 250 g ai/ha",100
same,Nightshade plant response rating,eastern black nightshade; [12],100
same,Goosegrass plant response rating,Goosegrass; [10],70
same,Goosegrass plant response rating,Goosegrass; [11],100
same,"Plant response rating (0 to 100), Goosegrass","Goosegrass; Postemergence, 31 g ai/ha",0
same,"Plant response rating, Goosegrass","Goosegrass; Postemergence, 62 g ai/ha",0
same,"Plant response rating, Goosegrass","Goosegrass; Postemergence, 125 g ai/ha",30
same,"Plant response rating, Goosegrass","Goosegrass; Postemergence, 250 g ai/ha",80
same,"Plant response rating (0 to 100), Goosegrass","Goosegrass; Preemergence, 250 g ai/ha",100
same,Goosegrass plant response rating,Goosegrass; [12],100
same,Johnsongrass plant response rating,johnsongrass; [10],80
same,Johnsongrass plant response rating,johnsongrass; [11],90
same,"Plant response rating (0 to 100), Johnsongrass","johnsongrass; Postemergence, 31 g ai/ha",0
same,"Plant response rating, Johnsongrass","johnsongrass; Postemergence, 62 g ai/ha",0
same,"Plant response rating, Johnsongrass","johnsongrass; Postemergence, 125 g ai/ha",0
same,"Plant response rating, Johnsongrass","johnsongrass; Postemergence, 250 g ai/ha",10
same,"Plant response rating (0 to 100), Johnsongrass","johnsongrass; Preemergence, 250 g ai/ha",100
same,Johnsongrass plant response rating,johnsongrass; [12],100
same,"Plant response rating (0 to 100), Velvetleaf",velvetleaf; 31 g ai/ha,10
same,"Plant response rating (0 to 100), Velvetleaf",velvetleaf; 62 g ai/ha,40
same,"Plant response rating, Velvetleaf",velvetleaf; 125 g ai/ha,45
same,"Plant response rating, Velvetleaf",velvetleaf; 250 g ai/ha,60
same,Barnyardgrass plant response rating,barnyardgrass; [6],80
same,Barnyardgrass plant response rating,barnyardgrass; [7],80
same,Barnyardgrass plant response rating,barnyardgrass; [8],90
same,"Plant response rating, Barnyardgrass",barnyardgrass; [9],100
same,Sunflower plant response rating,[4]; 62 g ai/ha,5
same,"Plant response rating (0 to 100), Sunflower","[4]; Preemergence, 250 g ai/ha",75
same,Sunflower plant response rating,[4]; 125 g ai/ha,25
same,Wheat plant response rating,wheat; [6],70
same,Wheat plant response rating,wheat; [7],70
same,Wheat plant response rating,wheat; [8],60
same,"Plant response rating, Wheat",wheat; [9],90
same,Pigweed plant response rating,pigweed; [10],80
same,Pigweed plant response rating,pigweed; [11],100
same,"Plant response rating (0 to 100), Pigweed","pigweed; Postemergence, 31 g ai/ha",0
same,"Plant response rating (0 to 100), Pigweed","pigweed; Postemergence, 62 g ai/ha",0
same,"Plant response rating, Pigweed","pigweed; Postemergence, 125 g ai/ha",0
same,"Plant response rating, Pigweed","pigweed; Postemergence, 250 g ai/ha",10
same,"Plant response rating (0 to 100), Pigweed","pigweed; Preemergence, 250 g ai/ha",100
same,Pigweed plant response rating,pigweed; [12],100
same,"Foxtail, Giant plant response rating",giant foxtail; [10],60
same,"Foxtail, Giant plant response rating",giant foxtail; [11],70
same,"Plant response rating (0 to 100), Foxtail, Giant","giant foxtail; Postemergence, 31 g ai/ha",0
same,"Plant response rating, Foxtail, Giant","giant foxtail; Postemergence, 62 g ai/ha",0
same,"Plant response rating, Foxtail, Giant","giant foxtail; Postemergence, 125 g ai/ha",45
same,"Plant response rating, Foxtail, Giant","giant foxtail; Postemergence, 250 g ai/ha",60
same,"Plant response rating (0 to 100), Foxtail, Giant","giant foxtail; Preemergence, 250 g ai/ha",100
same,"Foxtail, Giant plant response rating",giant foxtail; [12],100
same,Corn plant response rating,corn [5]; [6],50
same,Corn plant response rating,corn [5]; [7],80
same,Corn plant response rating,corn [5]; [8],0
same,"Plant response rating, Corn",corn [5]; [9],70

# Source: US20100298141A1, “SUBSTITUTED PYRIDINE N-OXIDE HERBICIDES” (E. I. DU PONT DE NEMOURS AND COMPANY, priority 2007, published 2010)
